Data as given in patent US10208056B2, “Condensed tricyclic compounds as protein kinase inhibitors” (FUNDACIÓN DEL SECTOR PÚBLICO ESTATAL CENTRO NACIONAL DE …, priority 2015, dated 2019).
Read-outs that look alike come from different tables or passages of the source.

What was measured:
CDK19/Cyclin C = CDK19/Cyclin C (Homo sapiens (Human), UniProt Q9BWU1); assay: CDK19/Cyclin C binding assay (LanthaScreen Eu-Kinase Binding Assay); settings: read-out: CDK19-CYCC IC50
Method in brief: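 LanthaScreen TR-FRET tracer-displacement format with 2 nM Cdk19-Cyclin C, 20 nM tracer and 2 nM Eu-anti-GST antibody. The buffer was 50 mM HEPES pH 7.5, 10 mM MgCl2, 1 mM EGTA, 0.01% Brij-35, with 1% DMSO final. Compounds were tested as 1:3 serial dilutions and incubated for 60 min at 25 °C.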

intracellular CDK8 [1] = molecular target: T1, intracellular CDK8 (Homo sapiens (Human), UniProt P49336); assay: Cellular CDK8 inhibition assay, western blot P-STAT1 (S727) in IFN-γ treated SW620 cells; type: cell-based; settings: SW620, IFNγ treated, semiquantitative; read-out: SW620 P-STAT1(S727) w IFNγ
Description: Compounds can be screened for their ability to inhibit intracellular CDK8 using a western blot assay to detect phosphorylation of the CDK8 substrate STAT1 (S727) in IFN-γ treated cells. SW620 cells are plated at 1*10^6 cells per well in 6-well plates (Solmeglas 13118) in RPMI media (Sigma-Aldrich R6504) supplemented with 10% foetal bovine serum (Sigma-Aldrich F7524), Penicillin/Streptomycin solution diluted 1:100 (Gibco 15070-063), and fungizone (Gibco, 15290-018), and allowed to adhere overnight at 37° C. in 5% CO2. Compounds are then added to the cell media from a final concentration of 10 μM in 10-fold serial dilutions and the cells are incubated at 37° C. in 5% CO2. After 1 hour, IFNγ (R&D systems Ref. RYD-285-IF-100) is added to a final concentration of […]. After 3 hours of treatment with IFNγ, the cells are washed in PBS, lysed adding 100 μl of protein lysis buffer (62.5 mM Tris pH 6.8 al 6.25%, 2% SDS y 10% glycerol) incubation 10 minutes at room temperature and heating at 95° C. 10 min. The protein content of the lysates is determined by DC protein assay (Biorad, Ref. 5000116). The proteins are resolved by SDS-PAGE and transferred to nitrocellulose membrane (VWR International eurolab, Ref. 732-4007). The membranes are incubated overnight at 4° C. with antibodies specific for total STAT1 (BD Transduction laboratory #610115), phosphoserine-727 STAT1 (Cell Signaling Ref. 9177) they are washed and then incubated with IRDye800 conjugated anti-mouse (Pierce/Cultek, 35521) and Alexa Fluor 680 goat anti-rabbit IgG secondary antibodies (Invitrogen, A21076). The bands are visualized and quantified using an Odyssey infrared imaging system (Li-Cor Biosciences). The percentage of phosphorylated STAT1 vs total STAT1 in cells treated with IFNγ is taken as hundred percent of phosphorylation. The percentage of STAT1 phosphorylation is finally plotted against concentration for each compound and EC50s for intracellular CDK8 inhibition are calculated using ActivityBase from IDBS.

CDK8/Cyclin C = CDK8/Cyclin C (Homo sapiens (Human), UniProt P49336); assay: CDK8/Cyclin C binding assay (LanthaScreen Eu-Kinase Binding Assay); settings: binding assay
Description: The enzyme has been purchase from Invitrogen (PV4402) as a dimer of full-length His-tagged recombinant human proteins.
Assays were performed in 384-well plates. The final read out was generated using an EnVision plate reader (Perkin-Elmer).

intracellular HASPIN [2] = molecular target: T2, intracellular HASPIN (Homo sapiens (Human), UniProt Q8TF76); assay: Cellular HASPIN inhibition assay, western blot phospho H3T3 in synchronized SW620 cells; type: cell-based; settings: semiquantitative, read-out: SW620 PH3(T3) in synchronized cells
Description: Compounds can be screened for their ability to inhibit intracellular HASPIN using a western blot assay to detect phosphorylation of the HASPIN substrate H3T3 in synchronized cells. SW620 cells are plated at 200000 cells per well in 6-well plates (Solmeglas 13118) in RPMI media (Sigma-Aldrich R6504) supplemented with 10% foetal bovine serum (Sigma-Aldrich F7524), Penicillin/Streptomycin solution diluted 1:100 (Gibco 15070-063), and fungizone (Gibco, 15290-018), and allowed to adhere overnight at 37° C. in 5% CO2. Cells are then treated 16 h hours with Nocadazole (Sigma-Aldrich M1404) at 250 ng/ml to arrest them in mitosis. Proteasoma inhibitor MG132 (Sigma-Aldrich C2211) is added to a final concentration of […] to keep cells arrested in mitosis. Compounds are then added to the cell media from a final concentration of 10 μM in 10-fold serial dilutions and the cells are incubated at 37° C. in 5% CO2. After 1 hour and 30 minutes of treatment with the compounds, the cells are washed in PBS, lysed adding 100 μl of protein lysis buffer (62.5 mM Tris pH 6.8 al 6.25%, 2% SDS y 10% glycerol) incubation 10 minutes at room temperature and heating at 95° C. 10 min. The protein content of the lysates is determined by DC protein assay (Biorad, Ref. 5000116). The proteins are resolved by SDS-PAGE and transferred to nitrocellulose membrane (VWR International eurolab, Ref. 732-4007). The membranes are incubated overnight at 4° C. with antibodies specific for total H3 (Millipore #07424), phosphothreonine-3 H3 (Cell Signaling Ref. 14269) they are washed and then incubated with IRDye800 conjugated anti-mouse (Pierce/Cultek, 35521) and Alexa Fluor 680 goat anti-rabbit IgG secondary antibodies (Invitrogen, A21076). The bands are visualized and quantified using an Odyssey infrared imaging system (Li-Cor Biosciences). The percentage of phosphorylated H3 vs total H3 in synchronized cells is taken as hundred percent of phosphorylation. The percentage of H3 phosphorylation is finally plotted against concentration for each compound and EC50s for intracellular HASPIN inhibition are calculated using ActivityBase from IDBS.

Haspin kinase = Haspin kinase (Homo sapiens (Human), UniProt Q8TF76); assay: Haspin kinase assay (ADP-Glo); type: biochemical; settings: ATP 150 μM
Method in brief: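 Compounds in 1:3 serial dilutions (1% DMSO final) were incubated 60 min at 30 °C with 20 nM recombinant GST-Haspin kinase domain and 150 μM ATP, without substrate, in pH 7.4 HEPES/MgCl2 buffer. ADP formed was read by luciferase luminescence and normalized to uninhibited enzyme to give % inhibition.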

Molm13 = assay: In vitro cell proliferation assay (CellTiter-Glo), Molm13; type: cell-based; settings: growth inhibition, semiquantitative, read-out: GI50 Molm13
Description: (§1) The in vitro potency of the compounds was measured by the cell proliferation assay CellTiter-Glo® Luminescent Cell Viability Assay, commercially available from Promega Corp., Madison, Wis. This homogeneous assay method is based on the recombinant expression of Coleoptera luciferase (U.S. Pat. No. 5,583,024; U.S. Pat. No. 5,674,713; U.S. Pat. No. 5,700,670) and determines the number of viable cells in culture based on quantitation of the ATP present, an indicator of metabolically active cells (Crouch et al (1993) J. Immunol. Meth. 160:81-88; U.S. Pat. No. 6,602,677). The CellTiterGlo® Assay was conducted […] it amenable to automated high throughput screening (HTS) (Cree et al (1995) AntiCancer Drugs 6:398-404).
(§2) The homogeneous assay procedure involves adding the single reagent (CellTiter-Glo® Reagent) directly to cells cultured in serum-supplemented medium. Cell washing, removal of medium and multiple pipetting steps are not required. The system detects as few as 15 cells/well in a 96-well format in 10 minutes after adding reagent and mixing.
(§3) The homogeneous “add-mix-measure” format results in cell lysis and generation of a luminescent signal proportional to the amount of ATP present. The amount of ATP is directly proportional to the number of cells present in culture. The CellTiter-Glo® Assay generates a “glow-type” luminescent signal, produced by the luciferase reaction, which has a half-life generally greater than five hours, depending on cell type and medium used. Viable cells are reflected in relative luminescence units (RLU). The substrate, Beetle Luciferin, is oxidatively decarboxylated by recombinant firefly luciferase with concomitant conversion of ATP to AMP and generation of photons. The extended half-life eliminates the need to use reagent injectors and provides flexibility for continuous or batch mode processing of multiple plates. This cell proliferation assay can be used with various multiwell formats, e.g. 96 or 384 well format. Data can be recorded by luminometer or CCD camera imaging device. The luminescence output is presented as relative light units (RLU), measured over time.

MDA-MB-231 = assay: In vitro cell proliferation assay (CellTiter-Glo), MDA-MB-231; type: cell-based; settings: growth inhibition, semiquantitative, read-out: GI50 MDA-MB-231
Description: as §1, §2, §3

intracellular HASPIN [3] = molecular target: T2, intracellular HASPIN; assay: Endogenous phosphoH3 inhibition in SW620 cells growing in 10% FBS; type: cell-based; settings: semiquantitative, read-out: SW620 pH3(T3)
Description: (§4) Endogenous phosphoH3 inhibition can be screened in cells growing in 10% FBS. Cells are plated as described before and treated for 8 h with compounds as described before. Then cells are lysated and phospho H3 evaluated as described before. The percentage of phosphorylated H3 vs total H3 in cells treated with DMSO is taken as hundred percent of phosphorylation. The percentage of H3 phosphorylation is finally plotted against concentration for each compound and EC50s for intracellular HASPIN inhibition are calculated using ActivityBase from IDBS.

SW620 = assay: In vitro cell proliferation assay (CellTiter-Glo), SW620; type: cell-based, human; settings: growth inhibition, semiquantitative, read-out: GI50 SW620
Description: as §1, §2, §3

intracellular CDK8 [4] = molecular target: T1, intracellular CDK8; assay: Endogenous phosphoSTAT1 inhibition in SW620 cells growing in 10% FBS; type: cell-based; settings: semiquantitative, read-out: SW620 P-STAT1(S727)
Description: as §4, with “Endogenous phosphoSTAT1” for “Endogenous phosphoH3”, “phospho STAT1 is” for “phospho H3”, “phosphorylated STAT1” for “phosphorylated H3”, “total STAT1” for “total H3”, “of STAT1” for “of H3”, “intracellular CDK8” for “intracellular HASPIN”

MV4:11 = assay: In vitro cell proliferation assay (CellTiter-Glo), MV4:11; type: cell-based; settings: growth inhibition, semiquantitative, read-out: GI50 MV4:11
Description: as §1, §2, §3

Haspin kinase, sequence (Q8TF76 484-798): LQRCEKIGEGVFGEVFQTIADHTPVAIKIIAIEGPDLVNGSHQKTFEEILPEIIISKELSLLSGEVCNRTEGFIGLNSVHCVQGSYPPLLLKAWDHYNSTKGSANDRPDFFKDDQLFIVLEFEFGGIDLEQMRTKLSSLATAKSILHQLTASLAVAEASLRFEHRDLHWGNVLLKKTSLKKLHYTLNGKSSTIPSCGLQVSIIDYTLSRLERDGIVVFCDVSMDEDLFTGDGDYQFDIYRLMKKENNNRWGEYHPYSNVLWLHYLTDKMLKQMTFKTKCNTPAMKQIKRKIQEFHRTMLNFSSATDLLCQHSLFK
T2 sequence (Q8TF76 whole entry): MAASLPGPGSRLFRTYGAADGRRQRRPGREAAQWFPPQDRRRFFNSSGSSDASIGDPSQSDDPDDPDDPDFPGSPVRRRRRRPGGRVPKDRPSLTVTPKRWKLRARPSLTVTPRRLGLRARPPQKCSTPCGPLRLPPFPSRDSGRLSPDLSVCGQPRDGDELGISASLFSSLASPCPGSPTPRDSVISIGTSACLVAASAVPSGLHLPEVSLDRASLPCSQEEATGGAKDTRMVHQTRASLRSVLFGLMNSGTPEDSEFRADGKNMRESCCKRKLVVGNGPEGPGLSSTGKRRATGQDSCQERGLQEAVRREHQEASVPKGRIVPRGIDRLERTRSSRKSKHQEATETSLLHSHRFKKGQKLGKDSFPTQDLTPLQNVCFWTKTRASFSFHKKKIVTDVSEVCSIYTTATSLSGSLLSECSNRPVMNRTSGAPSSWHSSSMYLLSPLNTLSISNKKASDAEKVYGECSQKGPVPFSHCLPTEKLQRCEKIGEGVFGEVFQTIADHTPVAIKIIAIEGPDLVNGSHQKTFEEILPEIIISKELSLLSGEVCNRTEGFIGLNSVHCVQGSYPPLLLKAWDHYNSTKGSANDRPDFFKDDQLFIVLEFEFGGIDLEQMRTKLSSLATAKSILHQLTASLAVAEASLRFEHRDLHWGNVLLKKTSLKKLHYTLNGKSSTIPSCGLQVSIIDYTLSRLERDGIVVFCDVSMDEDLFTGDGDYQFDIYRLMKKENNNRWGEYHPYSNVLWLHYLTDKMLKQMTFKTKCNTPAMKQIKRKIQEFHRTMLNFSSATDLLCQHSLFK
CDK8/Cyclin C, sequence (P49336 whole entry): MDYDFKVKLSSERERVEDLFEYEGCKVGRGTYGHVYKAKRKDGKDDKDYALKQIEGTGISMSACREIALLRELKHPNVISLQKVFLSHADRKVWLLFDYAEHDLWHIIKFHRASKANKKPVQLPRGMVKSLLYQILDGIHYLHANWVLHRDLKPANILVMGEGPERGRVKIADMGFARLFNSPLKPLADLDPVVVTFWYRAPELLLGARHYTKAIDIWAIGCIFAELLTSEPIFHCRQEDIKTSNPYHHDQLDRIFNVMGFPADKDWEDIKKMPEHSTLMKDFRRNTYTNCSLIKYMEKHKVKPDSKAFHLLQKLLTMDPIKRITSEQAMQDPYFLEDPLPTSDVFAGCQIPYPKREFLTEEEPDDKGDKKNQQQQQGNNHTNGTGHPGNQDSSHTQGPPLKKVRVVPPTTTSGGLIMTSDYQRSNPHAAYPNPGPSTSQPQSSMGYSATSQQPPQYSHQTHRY
CDK8/Cyclin C, sequence (P24863 whole entry partner): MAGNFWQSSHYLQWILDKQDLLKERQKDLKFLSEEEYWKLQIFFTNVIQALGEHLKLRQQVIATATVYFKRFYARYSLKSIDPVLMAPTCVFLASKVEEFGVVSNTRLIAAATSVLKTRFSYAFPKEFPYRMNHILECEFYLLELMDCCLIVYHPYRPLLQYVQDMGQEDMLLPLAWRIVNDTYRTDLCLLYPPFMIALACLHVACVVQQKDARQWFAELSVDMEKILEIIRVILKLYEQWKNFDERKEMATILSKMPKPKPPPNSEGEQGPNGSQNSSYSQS
T1 sequence (P49336 whole entry): as the sequence (P49336 whole entry) above
T1 sequence (P24863 whole entry partner): as the sequence (P24863 whole entry partner) above
T1 sequence (Q93074 whole entry partner): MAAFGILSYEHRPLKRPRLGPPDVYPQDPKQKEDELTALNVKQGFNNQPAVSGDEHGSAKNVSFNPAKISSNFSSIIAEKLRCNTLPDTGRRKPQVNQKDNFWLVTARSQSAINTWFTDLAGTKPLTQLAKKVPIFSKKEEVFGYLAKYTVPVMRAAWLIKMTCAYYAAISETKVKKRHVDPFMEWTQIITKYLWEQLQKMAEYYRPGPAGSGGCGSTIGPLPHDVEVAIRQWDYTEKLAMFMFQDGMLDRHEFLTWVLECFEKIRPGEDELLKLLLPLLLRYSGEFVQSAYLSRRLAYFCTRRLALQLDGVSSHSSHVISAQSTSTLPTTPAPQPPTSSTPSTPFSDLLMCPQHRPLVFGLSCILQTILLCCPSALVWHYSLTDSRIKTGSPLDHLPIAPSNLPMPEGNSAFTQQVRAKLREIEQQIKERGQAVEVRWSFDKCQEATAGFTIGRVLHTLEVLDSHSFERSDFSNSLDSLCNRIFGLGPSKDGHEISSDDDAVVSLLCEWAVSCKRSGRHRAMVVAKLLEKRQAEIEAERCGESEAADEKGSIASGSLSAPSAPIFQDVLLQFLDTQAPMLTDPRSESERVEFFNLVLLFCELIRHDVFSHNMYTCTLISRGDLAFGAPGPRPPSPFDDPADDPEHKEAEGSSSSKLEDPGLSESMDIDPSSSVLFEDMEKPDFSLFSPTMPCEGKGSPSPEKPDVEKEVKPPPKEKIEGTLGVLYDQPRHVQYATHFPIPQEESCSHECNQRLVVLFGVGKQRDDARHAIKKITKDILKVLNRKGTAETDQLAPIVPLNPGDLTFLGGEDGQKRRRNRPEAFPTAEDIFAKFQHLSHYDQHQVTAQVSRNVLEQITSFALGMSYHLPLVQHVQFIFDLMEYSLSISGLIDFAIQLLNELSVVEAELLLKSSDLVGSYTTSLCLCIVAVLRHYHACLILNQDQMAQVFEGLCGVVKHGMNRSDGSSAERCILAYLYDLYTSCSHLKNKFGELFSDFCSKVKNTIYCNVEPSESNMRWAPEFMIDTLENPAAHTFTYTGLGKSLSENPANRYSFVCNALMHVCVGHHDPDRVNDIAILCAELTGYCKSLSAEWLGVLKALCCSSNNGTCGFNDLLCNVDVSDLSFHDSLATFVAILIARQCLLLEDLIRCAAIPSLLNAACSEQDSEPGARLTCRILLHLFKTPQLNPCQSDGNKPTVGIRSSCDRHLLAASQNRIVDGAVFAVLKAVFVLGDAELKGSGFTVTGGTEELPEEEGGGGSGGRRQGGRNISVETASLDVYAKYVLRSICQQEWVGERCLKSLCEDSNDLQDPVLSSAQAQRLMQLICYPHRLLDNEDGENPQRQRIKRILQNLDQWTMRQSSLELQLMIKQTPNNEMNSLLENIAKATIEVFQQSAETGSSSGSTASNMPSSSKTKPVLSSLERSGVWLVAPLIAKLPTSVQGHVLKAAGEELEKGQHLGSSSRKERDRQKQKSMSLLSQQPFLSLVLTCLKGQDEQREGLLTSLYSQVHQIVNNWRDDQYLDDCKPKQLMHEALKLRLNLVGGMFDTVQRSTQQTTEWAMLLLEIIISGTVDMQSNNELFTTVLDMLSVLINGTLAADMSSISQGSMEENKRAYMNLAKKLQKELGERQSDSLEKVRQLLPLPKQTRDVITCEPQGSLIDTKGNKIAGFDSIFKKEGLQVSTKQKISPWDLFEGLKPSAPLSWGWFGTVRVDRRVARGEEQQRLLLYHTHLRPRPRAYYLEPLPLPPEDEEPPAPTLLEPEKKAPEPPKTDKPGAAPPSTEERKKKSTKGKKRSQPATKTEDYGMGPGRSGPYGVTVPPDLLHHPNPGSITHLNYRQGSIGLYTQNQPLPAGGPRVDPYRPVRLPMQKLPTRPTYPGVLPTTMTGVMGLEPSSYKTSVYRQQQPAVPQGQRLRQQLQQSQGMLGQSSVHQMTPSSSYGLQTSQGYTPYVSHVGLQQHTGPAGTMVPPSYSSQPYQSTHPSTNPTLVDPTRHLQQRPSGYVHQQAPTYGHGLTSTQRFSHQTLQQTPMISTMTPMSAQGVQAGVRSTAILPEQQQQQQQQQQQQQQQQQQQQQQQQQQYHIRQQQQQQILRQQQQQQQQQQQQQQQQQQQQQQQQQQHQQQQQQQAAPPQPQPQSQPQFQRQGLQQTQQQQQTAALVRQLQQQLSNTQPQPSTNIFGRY
CDK19/Cyclin C, sequence (Q9BWU1 whole entry): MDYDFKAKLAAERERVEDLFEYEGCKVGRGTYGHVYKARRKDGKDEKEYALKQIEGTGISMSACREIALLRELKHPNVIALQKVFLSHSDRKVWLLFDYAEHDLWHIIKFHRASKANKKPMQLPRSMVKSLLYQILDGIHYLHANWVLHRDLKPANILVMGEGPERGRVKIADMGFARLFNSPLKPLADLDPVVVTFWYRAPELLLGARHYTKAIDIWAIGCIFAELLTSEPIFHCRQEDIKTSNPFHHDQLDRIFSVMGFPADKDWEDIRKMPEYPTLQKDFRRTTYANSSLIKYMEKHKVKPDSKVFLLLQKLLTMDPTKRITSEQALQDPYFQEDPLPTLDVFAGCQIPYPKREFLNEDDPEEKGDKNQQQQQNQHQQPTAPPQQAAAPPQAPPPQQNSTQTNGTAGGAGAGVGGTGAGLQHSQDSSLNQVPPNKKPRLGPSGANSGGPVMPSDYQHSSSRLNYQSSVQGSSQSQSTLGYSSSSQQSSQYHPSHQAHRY
CDK19/Cyclin C, sequence (P24863 whole entry partner): as the sequence (P24863 whole entry partner) above

Row | Structure (SMILES) | IC50 (CDK19/Cyclin C) | EC50 (intracellular CDK8 [1]) | IC50 (CDK8/Cyclin C) | EC50 (intracellular HASPIN [2]) | IC50 (Haspin kinase) | GI50 (Molm13; Homo sapiens, MOLM-13) | GI50 (MDA-MB-231; Homo sapiens, MDA-MB-231) | EC50 (intracellular HASPIN [3]) | GI50 (SW620; Homo sapiens, SW-620) | EC50 (intracellular CDK8 [4]) | GI50 (MV4:11; Homo sapiens, MV4-11) | GI50 (Molm13) | GI50 (MDA-MB-231) | GI50 (SW620) | GI50 (MV4:11)
1 | COCCn1c(C(N)=O)cc2c1-c1ccncc1OC2(C)C [Example 45] | 11.5 nM | < 500 nM | 4.64 nM | < 500 nM | 182 nM | – | – | – | – | – | – | – | – | – | –
2 | CCn1c(C(N)=O)cc2c1-c1ccncc1OC21CCOCC1 [Example 82] | 4.58 nM | – | 2.19 nM | – | 12.8 nM | < 1000 nM | 1000 to 10000 nM | < 500 nM | 1000 to 10000 nM | < 500 nM | < 1000 nM | – | – | – | –
3 | CCn1c(C(N)=O)cc2c1-c1ccncc1OC21CCNCC1 [Example 91] | – | – | 301 nM | < 500 nM | 16.5 nM | < 1000 nM | 1000 to 10000 nM | < 500 nM | 1000 to 10000 nM | – | < 1000 nM | – | – | – | –
4 | CCn1c(C(N)=O)cc2c1-c1ccncc1O[C@@H]2C1CCCCC1 (single isomer, unassigned) [Example 90] | 1.41 nM | – | 1.36 nM | – | 522 nM | – | – | < 500 nM | – | < 500 nM | – | 1000 to 10000 nM | 10000 to 100000 nM | 10000 to 100000 nM | < 1000 nM
5 | NC(=O)c1cc2c(n1CCF)-c1ccncc1OC21CCCCC1 [Example 84] | 148 nM | – | 1.41 nM | – | 42.1 nM | < 1000 nM | 1000 to 10000 nM | < 500 nM | 1000 to 10000 nM | < 500 nM | < 1000 nM | – | – | – | –
6 | NC(=O)c1cc2c([nH]1)-c1ccncc1O[C@@H]2C1CCOCC1 (single isomer, unassigned) [Example 71] | – | 500 to 10000 nM | 281 nM | 500 to 10000 nM | 5760 nM | – | – | – | – | – | – | – | – | – | –
7 | CCn1c(C(N)=O)cc2c1-c1ccncc1OC21CCN(CC(F)(F)F)CC1 [Example 79] | 3.14 nM | – | 1.11 nM | – | 38.6 nM | < 1000 nM | 1000 to 10000 nM | < 500 nM | 1000 to 10000 nM | < 500 nM | < 1000 nM | – | – | – | –
